Among the data in US9200051B2, “Peptide compound” (TAKEDA PHARMACEUTICAL COMPANY LIMITED, priority 2013, dated 2015) are EC50 and solubility values, retold here.

As usually defined, the EC50 is the midpoint of the concentration-response curve. By solubility is commonly meant the dissolved amount per volume that the medium holds. A higher solubility goes with much dissolved substance.

The structures appear in SMILES notation. Square brackets hold non-standard residues; d marks the D form. Peptide text beside a SMILES is read from it. αMeF = C[C@](N)(Cc1ccccc1)C(=O)O; Aib = CC(C)(N)C(=O)O

In data set [1] the target is T1, human GIPR (Homo sapiens, UniProt P48546).
T1 construct: expressed in transfected cells; host or cells: CHO-K1 (CRE-LUC/CHO-K1), plasmid hGIPR/pMSRα-neo
T1 sequence (P48546 22-466): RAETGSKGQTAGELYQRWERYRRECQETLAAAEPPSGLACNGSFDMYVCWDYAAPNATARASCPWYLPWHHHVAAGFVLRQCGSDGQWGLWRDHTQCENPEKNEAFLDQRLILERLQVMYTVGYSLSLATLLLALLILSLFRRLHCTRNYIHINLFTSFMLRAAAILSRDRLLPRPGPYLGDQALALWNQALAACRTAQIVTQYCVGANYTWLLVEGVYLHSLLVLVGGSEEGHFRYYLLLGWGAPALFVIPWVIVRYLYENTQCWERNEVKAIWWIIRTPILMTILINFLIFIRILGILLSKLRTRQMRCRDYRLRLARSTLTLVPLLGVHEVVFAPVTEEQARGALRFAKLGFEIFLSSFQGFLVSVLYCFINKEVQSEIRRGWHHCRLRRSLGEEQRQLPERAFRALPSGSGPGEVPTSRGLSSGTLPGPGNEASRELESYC
Description: Agonist activity against human GIPR, CRE-luciferase reporter assay (rise in intracellular cAMP) in hGIPR/CRE-LUC/CHO-K1 cells. Type of data set: cell-based. Particulars: hGIPR/CRE-LUC/CHO-K1 cells, 4 hours incubation; 10 nM GIP = 100%; read-out: Agonist activity (EC50) hGIPR. For orientation: A reporter such as luciferase makes a cellular process visible.

Data set [2] can be described thus: Solubility test in Britton-Robinson buffer, observed visually. In kind it is physicochemical. As for the experimental part:
The test compound of approximately 2 mg was measured precisely. Solvents (10 μL, 20 μL or 40 μL) with different pH (Britton-Robinson buffer (pH 3, 5, 7, 9)) were added to each test compound at 25° C., and the solubility was observed visually.

Data set [3] addresses T2, human GLP-1R (Homo sapiens, UniProt P43220).
T2 construct: expressed in transfected cells; host or cells: CHO-K1, plasmids hGLP-1/pIRESneo3 and Cre-luc(Zeo)
The experiment in a line: Agonist activity against human GLP-1R, CRE-luciferase reporter assay in hGLP-1R/CRE-luc/CHO-K1 cells. Type of data set: cell-based. Conditions: hGLP-1R/CRE-luc/CHO-K1 cells, 4 hours incubation; 10 nM GLP-1 = 100%; read-out: Agonist activity (EC50) hGLP-1R.

Data set [4] concerns the target T3, human glucagon R (Homo sapiens, UniProt P47871).
T3 construct: expressed in transfected cells; host or cells: CHO-K1 (CRE-LUC/CHO-K1), plasmid hGlucagonR/pMSRα-neo
The experiment in a line: Agonist activity against human glucagon R, CRE-luciferase reporter assay in hGlucagonR/CRE-LUC/CHO-K1 cells. In kind it is cell-based. Particulars: hGlucagonR/CRE-LUC/CHO-K1 cells, 4 hours incubation; 10 nM glucagon = 100%; read-out: Agonist activity (EC50) hGCGR.

T3 sequence (P47871 26-477): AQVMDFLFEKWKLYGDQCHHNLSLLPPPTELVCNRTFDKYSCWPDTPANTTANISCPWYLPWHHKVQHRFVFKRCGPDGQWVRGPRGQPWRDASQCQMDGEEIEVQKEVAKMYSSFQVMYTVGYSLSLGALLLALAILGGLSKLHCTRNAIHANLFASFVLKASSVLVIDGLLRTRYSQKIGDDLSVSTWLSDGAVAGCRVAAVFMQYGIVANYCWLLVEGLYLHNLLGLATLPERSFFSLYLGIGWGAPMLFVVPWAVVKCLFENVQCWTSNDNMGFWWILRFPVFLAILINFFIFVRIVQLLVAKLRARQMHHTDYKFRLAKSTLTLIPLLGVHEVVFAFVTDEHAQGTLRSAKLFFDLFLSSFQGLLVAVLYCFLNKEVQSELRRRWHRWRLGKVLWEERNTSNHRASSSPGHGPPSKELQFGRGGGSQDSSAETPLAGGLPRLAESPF
T2 sequence (P43220 24-463): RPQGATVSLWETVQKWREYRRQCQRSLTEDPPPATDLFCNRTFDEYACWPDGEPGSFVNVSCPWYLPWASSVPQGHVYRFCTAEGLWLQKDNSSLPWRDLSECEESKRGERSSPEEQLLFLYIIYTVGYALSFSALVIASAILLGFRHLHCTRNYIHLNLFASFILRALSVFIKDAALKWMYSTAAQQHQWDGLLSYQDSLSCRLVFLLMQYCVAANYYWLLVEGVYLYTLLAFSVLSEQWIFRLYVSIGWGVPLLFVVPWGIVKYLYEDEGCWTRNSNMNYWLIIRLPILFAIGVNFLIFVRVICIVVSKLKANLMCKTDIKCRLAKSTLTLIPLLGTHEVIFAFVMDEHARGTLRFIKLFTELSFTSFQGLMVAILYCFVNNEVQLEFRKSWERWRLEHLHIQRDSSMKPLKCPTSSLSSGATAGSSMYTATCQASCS

In the case of `CC(C)C[C@H](NC(=O)[C@H](CC(C)C)NC(=O)[C@H](Cc1c[nH]c2ccccc12)NC(=O)[C@H](CCCCN)NC(=O)[C@@H](NC(=O)[C@H](Cc1ccccc1)NC(=O)[C@H](CCC(=O)O)NC(=O)[C@H](CCC(N)=O)NC(=O)[C@H](CCC(N)=O)NC(=O)[C@H](C)NC(=O)[C@H](CCC(N)=O)NC(=O)[C@H](CCCCN)NC(=O)[C@H](CC(=O)O)NC(=O)[C@H](CC(C)C)NC(=O)[C@H](Cc1ccc(O)cc1)NC(=O)[C@H](CCCCN)NC(=O)C(C)(C)NC(=O)[C@H](Cc1ccc(O)cc1)NC(=O)[C@H](CC(=O)O)NC(=O)[C@H](CO)NC(=O)[C@@H](NC(=O)[C@](C)(Cc1ccccc1)NC(=O)[C@@H](NC(=O)CNC(=O)[C@H](CCC(=O)O)NC(=O)C(C)(C)NC(=O)[C@@H](N)Cc1ccc(O)cc1)[C@@H](C)O)[C@@H](C)O)C(C)C)C(=O)N[C@@H](CCCCN)C(=O)NCC(=O)NCC(=O)N1CCC[C@H]1C(=O)N[C@@H](CO)C(=O)N[C@@H](CO)C(=O)NCC(=O)N[C@@H](C)C(=O)N1CCC[C@H]1C(=O)N1CCC[C@H]1C(=O)N1CCC[C@H]1C(=O)N[C@@H](CO)C(N)=O` [Example 26] (H-Y[Aib]EGT[αMeF]TSDY[Aib]KYLDKQAQQEFVKWLLKGGPSSGAPPPS-NH2), the EC50 in data set [1] is 0.013 nM; in data set [3] it was 0.015 nM; in data set [4], more than 1000 nM. Besides, the solubility in data set [2] (pH 3), in data set [2] (pH 5), in data set [2] (pH 7) and in data set [2] (pH 9) was more than 200 mg/mL in each case.
